For series [1], the target named is T1, human NK1 receptor (hNK1R) (Homo sapiens, UniProt P25103).
T1 construct: expressed in transfected cells; host or cells: CHO (CHO-hNK1)
The series is described as follows: Intracellular calcium mobilization (Fluo-4 AM, FLIPR) in CHO cells expressing recombinant hNK1R. The note with it: for EC50: calcium mobilization, CHO-hNK1 cells, agonist potency, read-out: hNK1R pEC50 (converted); for calcium response at hNK1R: tested at concentrations up to 10 μM; for Emax: CHO, calcium response, CHO cells, full or partial agonists, read-out: maximal response at hNK1R compared to Substance P. It is filed as cell-based. The method, then: (§1) Intracellular Calcium Mobilization: The agonist efficacy of compounds A-J at recombinant hNK2R or hNK1Rs expressed in CHO cells was assessed by measuring intracellular calcium mobilization using the calcium-sensitive dye Fluo-4 AM (MOLECULAR PROBES, EUGENE, OR, USA) and a Fluorometric Imaging Plate Reader (FLIPR, MOLECULAR DEVICES, CA, USA). CHO-hNK1 and CHO-hNK2 cells were seeded into black walled clear-bottom 384-well plates) at a density of 10,000 and 15,000 cells per well in 50 μL culture media, respectively, and grown overnight at 37° C. in a humidified CO2-incubator. Cells were washed in washing buffer using a Microplate Washer BIOTEK 384 instrument, leaving 20 μL of buffer per well after the final aspiration. Cells were then incubated at 37° C. with the cytoplasmic Ca^2+ indicator Fluo-4 AM at 2 μM in assay buffer containing 2.5 mM probenecid and 0.02% Pluronic F-127 for 45-60 min (cell loading). Cells were then washed 3 times in washing buffer using a Microplate Washer BIOTEK 384 instrument, leaving 30 μL of buffer in each well after the last wash. Loaded cell plates were transferred to the FLIPR Tetra instrument and calcium responses monitored as described below. A dual read-out FLIPR protocol was used, allowing for characterization of both agonist and antagonist profiles. For quality control, in each compound plate the signal was monitored by evaluating the responses to the reference standards (NKA and Substance P).
(§2) Twelve concentrations of each of the compounds A-J were evaluated for their ability to increase intracellular calcium levels with respect to the agonist reference standard (NKA or Substance P), and the pEC50 value was calculated. […] Concentration response curves of compounds were run in duplicate on two different occasions from the same stock solutions. Test solutions were prepared from 10 mM stock solutions in DMSO and 1 μL of each solution was stamped into V-bottom assay plates containing 49 μL assay buffer. The final concentration of DMSO was 0.5% in each well.
(§3) The results of the intracellular calcium mobilization by in vitro activation of recombinant hNK2Rs or hNK1Rs expressed in CHO cells as described above for the 10 peptide analogs A-J, is shown in Table 3 below. In addition, FIGS. 3A-3C are exemplary graphs showing stimulation of [Ca^2+] response in CHO cells expressing human NK2 or NK1 receptors by Compound A, Compound B, and Compound G, respectively. In FIGS. 3A-3C, data are expressed as % of the maximal response to substance P for NK1 receptors, or NKA for NK2 receptors. Each data point is the mean±SD from duplicate determinations.
For orientation: A change in cytosolic calcium serves as a functional read-out for many receptors and channels.

Series [2] is described as follows: Aqueous solubility of lyophilized peptide analogs (observed dissolution in Dulbecco's phosphate buffered saline and water). Type of series: physicochemical. The note with it: observed dissolution in both Dulbecco's phosphate buffered saline and water; 5 mg/mL was the maximum tested. How it is done:
Peptide analogs of NKA were purified to ≥95% purity. […] Compounds A, B, H, and J (SEQ ID NO: 1, 2, 8, and 10) were considered to be aqueous insoluble (<0.1 mg/mL). *Aqueous solubilities of the lyophilized peptide analogs were determined based on the observed dissolution in both Dulbecco's phosphate buffered saline and water. gc=Gly-(R-gamma-lactam)-Leu or (S)-2-((R)-3-amino)-2-oxopyrrolidin-1-yl)-4-methylpantanoyl.

Series [3] concerns the target T2, human NK2 receptor (hNK2R) (Homo sapiens, UniProt P21452).
T2 construct: expressed in transfected cells; host or cells: CHO (CHO-hNK2)
T2 sequence (P21452 1-398): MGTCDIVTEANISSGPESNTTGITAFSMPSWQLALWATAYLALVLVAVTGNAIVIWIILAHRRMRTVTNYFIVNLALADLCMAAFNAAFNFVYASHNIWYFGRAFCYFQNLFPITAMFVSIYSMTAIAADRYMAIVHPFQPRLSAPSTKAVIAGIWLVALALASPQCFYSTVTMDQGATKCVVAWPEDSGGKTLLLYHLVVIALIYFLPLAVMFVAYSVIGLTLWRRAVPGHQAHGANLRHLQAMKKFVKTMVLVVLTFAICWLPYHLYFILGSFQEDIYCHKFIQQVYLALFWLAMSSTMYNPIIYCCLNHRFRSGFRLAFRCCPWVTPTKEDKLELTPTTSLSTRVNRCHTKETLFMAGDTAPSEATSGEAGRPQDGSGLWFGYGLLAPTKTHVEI
The series can be described thus: Intracellular calcium mobilization (Fluo-4 AM, FLIPR) in CHO cells expressing recombinant hNK2R. The settings on record: for EC50: calcium mobilization, CHO-hNK2 cells, agonist potency, read-out: hNK2R pEC50 (converted); for selectivity for activation of hNK2Rs vs hNK1Rs: from ratios of EC50s; for calcium response at hNK2R: tested at concentrations up to 10 μM. It is filed as cell-based. How it is done: as §1, §2, §3

Series [4] has as its target human neurokinin 1 receptor (human, UniProt P25103 1-407). The series is described as follows: cell-based or functional assay.
Series [5] deals with T3, human neurokinin 2 receptor (human, UniProt P21452 1-398).
T3 sequence (looked up): T2 sequence (P21452 1-398)
The series is described as follows: cell-based or functional assay.

≈ marks a conversion by molar mass, not a printed value. Entries after “also recorded” stand apart in the source; their conditions may differ. Non-standard residues stand in square brackets, D forms with d. Residues, ends and D or L forms follow the SMILES beside them. No end group written: not given here. Nle = CCCC[C@H](N)C(=O)O; βAla = NCCC(=O)O

T1 sequence (P25103 whole entry): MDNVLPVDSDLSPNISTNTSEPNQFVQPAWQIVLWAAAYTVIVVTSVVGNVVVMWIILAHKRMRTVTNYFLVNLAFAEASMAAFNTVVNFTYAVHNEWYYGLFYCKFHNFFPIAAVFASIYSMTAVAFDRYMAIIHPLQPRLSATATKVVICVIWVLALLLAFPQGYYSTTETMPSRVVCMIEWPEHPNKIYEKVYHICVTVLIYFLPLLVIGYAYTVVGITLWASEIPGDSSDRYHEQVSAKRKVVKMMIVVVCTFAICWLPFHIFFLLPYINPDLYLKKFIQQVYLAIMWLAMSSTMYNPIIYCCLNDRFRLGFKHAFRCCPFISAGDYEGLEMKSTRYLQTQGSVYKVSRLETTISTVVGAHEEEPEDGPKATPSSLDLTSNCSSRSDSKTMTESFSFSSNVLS
Sequence of human neurokinin 1 receptor (P25103 whole entry): as above

In general, solubility refers to the dissolved amount per volume that the medium holds. A higher solubility goes with a readily soluble substance. Take `CCCC[C@H](NC(=O)[C@H](CC(C)C)N1CC[C@@H](NC(=O)[C@@H](NC(=O)[C@H](Cc2ccccc2)NC(=O)[C@H](CCCNC(=N)N)NC(=O)[C@@H](N)CC(=O)O)C(C)C)C1=O)C(N)=O` [Compound F, Asp-Arg-Phe-Val-gc-Nle-NH2]: the EC50 in series [1] was 234 nM; in series [3], 2.51 nM. The solubility in series [2] was 5000 µg/mL (≈ 5.92 mM).

For the molecule `CSCC[C@H](NC(=O)[C@H](CC(C)C)N1CC[C@@H](NC(=O)[C@@H](NC(=O)[C@H](Cc2ccccc2)NC(=O)[C@H](CCCNC(=N)N)NC(=O)[C@@H](N)CC(=O)O)C(C)C)C1=O)C(N)=O` [Compound E, Asp-Arg-Phe-Val-gc-Met-NH2], the EC50 in series [1] is 17.4 nM; in series [3], 0.195 nM. For the same molecule, the solubility in series [2] was found to be 5000 µg/mL (≈ 5.8 mM).

With `CCCC[C@H](NC(=O)[C@H](CC(C)C)N1CC[C@@H](NC(=O)[C@@H](NC(=O)[C@H](Cc2ccccc2)NC(=O)[C@H](CCCCN)NC(=O)[C@@H](N)CC(=O)O)C(C)C)C1=O)C(N)=O` [Compound D, Asp-Lys-Phe-Val-gc-Nle-NH2], the EC50 in series [1] is 479 nM; in series [3], 3.63 nM. Further, the solubility in series [2] came to 5000 µg/mL (≈ 6.13 mM).

With `CSCC[C@H](NC(=O)[C@H](CC(C)C)NC(=O)CCNC(=O)[C@@H](NC(=O)[C@H](Cc1ccccc1)NC(=O)[C@H](CO)NC(=O)[C@H](CC(=O)O)NC(=O)[C@@H](N)CCCCN)C(C)C)C(N)=O` [I, Lys-Asp-Ser-Phe-Val-(β-Ala)-Leu-Met-NH2] (H-KDSFV[βAla]LM-NH2; N-terminus assumed), in series [1], the EC50 was > 10000 nM and the “calcium response at hNK1R” value is on record as “did not elicit a significant calcium response; also recorded: do not elicit a significant calcium response”. In series [2], the solubility was ≥ 5000 µg/mL. In series [3], the EC50 was > 10000 nM, the “selectivity for activation of hNK2Rs vs hNK1Rs” value (from here on “selectivity for activation”) is “did not exhibit selectivity for hNK2Rs; also recorded: do not exhibit selectivity for hNK2Rs” and the “calcium response at hNK2R” value is reported as “did not elicit a significant calcium response; also recorded: do not elicit a significant calcium response”.

On to `CCCC[C@H](NC(=O)[C@H](CC(C)C)N1CC[C@@H](NC(=O)[C@@H](NC(=O)[C@H](Cc2ccccc2)NC(=O)[C@H](CO)NC(=O)[C@H](CC(=O)O)NC(=O)[C@@H](N)CCCCN)C(C)C)C1=O)C(N)=O` [Compound G, Lys-Asp-Ser-Phe-Val-gc-Nle-NH2], for which, in series [1], the Emax is ≥ 73%. The results for the EC50 in series [1] and in series [3] were 1620 nM and 7.76 nM, respectively. This molecule had a solubility in series [2] of 5000 µg/mL (≈ 5.54 mM).

Turning to `CSCC[C@H](NC(=O)[C@H](CC(C)C)N1CC[C@@H](NC(=O)[C@@H](NC(=O)[C@H](Cc2ccccc2)NC(=O)[C@H](CCCCN)NC(=O)[C@@H](N)CC(=O)O)C(C)C)C1=O)C(N)=O` [Compound C, Asp-Lys-Phe-Val-gc-Met-NH2], the EC50 is 53.7 nM in series [1] and 0.427 nM in series [3]. Also, the solubility in series [2] was found to be 5000 µg/mL (≈ 5.99 mM).

A word on the Aqueous solubility: it is the dissolved amount per volume that the medium holds. A lower Aqueous solubility goes with a poorly soluble substance. Take `CCCC[C@H](NC(=O)[C@H](CC(C)C)N1CC[C@@H](NC(=O)[C@@H](NC(=O)[C@H](Cc2ccccc2)NC(=O)[C@H](CO)NC(=O)[C@@H](N)CC(=O)O)C(C)C)C1=O)C(N)=O` [Compound B, Asp-Ser-Phe-Val-gc-Nle-NH2]: in series [1], the Emax is ≥ 73% and the EC50 was 1780 nM. Moreover, in series [2], the Aqueous solubility was <100 µg/mL and the solubility was < 100 µg/mL. For the same molecule, in series [3], the EC50 is 8.51 nM.

Consider `CSCC[C@H](NC(=O)[C@H](CC(C)C)N1CC[C@@H](NC(=O)[C@@H](NC(=O)[C@H](Cc2ccccc2)NC(=O)[C@H](CO)NC(=O)[C@@H](N)CC(=O)O)C(C)C)C1=O)C(N)=O` [Compound A, Asp-Ser-Phe-Val-gc-Met-NH2], for which, in series [1], the Emax is ≥ 85% and the EC50 is 490 nM. Also, in series [2], the Aqueous solubility was <100 µg/mL and the solubility was < 100 µg/mL. Further, in series [3], the EC50 was 0.676 nM and the “selectivity for activation” value is recorded as > 700 fold.

Consider `CCCC[C@H](NC(=O)[C@H](CC(C)C)NC(=O)CCNC(=O)[C@@H](NC(=O)[C@H](Cc1ccccc1)NC(=O)[C@H](CO)NC(=O)[C@H](CC(=O)O)NC(=O)[C@@H](N)CCCCN)C(C)C)C(N)=O` [Compound J, Lys-Asp-Ser-Phe-Val-(β-Ala)-Leu-Nle-NH2] (H-KDSFV[βAla]L[Nle]-NH2; N-terminus assumed), for which, in series [1], the Emax was ≥ 85% and the EC50 is 302 nM. Also, in series [2], the Aqueous solubility is <100 µg/mL and the solubility was < 100 µg/mL. In series [3], the EC50 is 13.2 nM and the “selectivity for activation” value is > 20 fold. For the same molecule, in series [3] (calcium response, CHO cells, full agonists, read-out: maximal response at hNK2R compared to Neurokinin A), the Emax is ≥ 85%.

As for `CCCC[C@H](NC(=O)[C@H](CC(C)C)NC(=O)CCNC(=O)[C@@H](NC(=O)[C@H](Cc1ccccc1)NC(=O)[C@H](CO)NC(=O)[C@@H](N)CC(=O)O)C(C)C)C(N)=O` [H, Asp-Ser-Phe-Val-(β-Ala)-Leu-Nle-NH2] (H-DSFV[βAla]L[Nle]-NH2; N-terminus assumed), in series [1], the EC50 is > 10000 nM and the “calcium response at hNK1R” value is given as “did not elicit a significant calcium response; also recorded: do not elicit a significant calcium response”. Also, in series [2], the Aqueous solubility is <100 µg/mL and the solubility was < 100 µg/mL. In series [3], the EC50 was > 10000 nM, the “selectivity for activation” value is recorded as “did not exhibit selectivity for hNK2Rs; also recorded: do not exhibit selectivity for hNK2Rs” and the “calcium response at hNK2R” value was “did not elicit a significant calcium response; also recorded: do not elicit a significant calcium response”.

B1: Compound I (Lys-Asp-Ser-Phe-Val-(β-Ala)-Leu-Met-NH2) (peptide)
peptide: KDSFV[βAla]LM-NH2
modifications: N-terminus assumed
SMILES: CSCC[C@H](NC(=O)[C@H](CC(C)C)NC(=O)CCNC(=O)[C@@H](NC(=O)[C@H](Cc1ccccc1)NC(=O)[C@H](CO)NC(=O)[C@H](CC(=O)O)NC(=O)[C@@H](N)CCCCN)C(C)C)C(N)=O
On to B1, for which, in series [4], the “hNK1R pEC50 (intracellular calcium mobilization, FLIPR, CHO cells)” value is < 5. Besides, the “hNK2R pEC50 (intracellular calcium mobilization, FLIPR, CHO cells)” value in series [5] is < 5.

B2: Compound H (Asp-Ser-Phe-Val-(β-Ala)-Leu-Nle-NH2) (peptide)
peptide: DSFV[βAla]L[Nle]-NH2
modifications: N-terminus assumed
SMILES: CCCC[C@H](NC(=O)[C@H](CC(C)C)NC(=O)CCNC(=O)[C@@H](NC(=O)[C@H](Cc1ccccc1)NC(=O)[C@H](CO)NC(=O)[C@@H](N)CC(=O)O)C(C)C)C(N)=O
On to B2, for which the “hNK1R pEC50 (intracellular calcium mobilization, FLIPR, CHO cells)” value in series [4] was < 5. Also, the “hNK2R pEC50 (intracellular calcium mobilization, FLIPR, CHO cells)” value in series [5] was < 5.

Source of the values: US20230374071A1, “COMPOSITIONS FOR INDUCING URINARY VOIDING AND DEFECATION” (Dignify Therapeutics, LLC, priority 2020, published 2023).
